Measured values taken from ChEMBL document CHEMBL1139528, “Molecular determinants of topoisomerase I poisoning by lamellarins: comparison with camptothecin and structure-activity relationships” (J Med Chem, 2005).

Tests used:
CCRF-CEM [1] = experiment: Ratio of IC50 against CPT-resistant cell line to that of CPT-sensitive cell line expressed as relative resistant index; assay type: functional, Homo sapiens
CCRF-CEM [2] = experiment: Inhibitory concentration against CEM cell growth after incubation in liquid medium for 72 h; assay type: functional, cell-based; details: Homo sapiens
[3] = Inhibitory concentration against CEM/C2 cell growth after incubation in liquid medium for 72 h; assay type: functional, cell-based; details: Homo sapiens, CEM/C2, 72 h

Structure (SMILES) | RRI (CCRF-CEM [1]) | IC50 (CCRF-CEM [2]) [µM] | IC50 [3] [µM]
COc1cc(-c2c3c4ccccc4oc(=O)c3n3ccc4cc(O)c(OC)cc4c23)ccc1O | 5 | 2.23 | 11.1
COc1ccc2oc(=O)c3c(c(-c4ccc(O)c(OC)c4)c4c5cc(OC)c(O)cc5ccn43)c2c1 | 12 | 0.52 | 6.25
COc1ccc(-c2c3c4cc5c(cc4oc(=O)c3n3ccc4cc(OC)c(OC)cc4c23)OCO5)cc1OC |  | > 100 | > 100
COc1cc2c(cc1O)oc(=O)c1c2c(-c2ccc(OC)c(OC)c2)c2c3cc(OC)c(OC)cc3ccn21 | 2 | 3.03 | 5.55
O=c1oc2ccccc2c2c(-c3ccc(O)c(O)c3)c3c4cc(O)c(O)cc4ccn3c12 | 2 | 0.43 | 0.95
CC(=O)Oc1ccc(-c2c3c4cc(OC(C)=O)c(OC(C)=O)cc4oc(=O)c3n3ccc4cc(OC(C)=O)c(OC(C)=O)cc4c23)cc1OC(C)=O | 4 | 1.95 | 6.93
COc1cc(-c2c3c4ccc(O)cc4oc(=O)c3n3ccc4cc(O)c(OC)cc4c23)ccc1O | 164 | 0.017 | 2.74
CC[C@@]1(O)C(=O)OCc2c1cc1n(c2=O)Cc2cc3ccccc3nc2-1 [CAMPTOTHECIN] | 6400 | 0.00084 | 5.38
COc1cc(-c2c3c4cc(OC)c(O)cc4oc(=O)c3n3ccc4cc(O)c(OC)cc4c23)ccc1O [LAMELLARIN D] | 144 | 0.005 | 0.72
